Assay [1] relates to H3K4 trimethylation activity in MEFs. Nature of the assay: H3K4me3 indicator in murine embryonic fibroblasts from Kmt2d+/βGeo and Kmt2d+/+ mice. Particulars: Kmt2d+/βGeo cells (MEFs). In kind it is cell-based, mouse. An excerpt:
An H3K4 trimethylation reporter was also created (FIG. 5B). This reporter is based on the H3 tail on one end and the TBP associated factor III (TAFIII) […] on the other end; the TAFIII […] only identifies and binds to trimethylated K4 on H3. When the H3K4 site gets trimethylated, the TAFIII […] can bind to the modified H3 tail and bring the two parts of the separated GFP in close proximity. The activity of the epigenetic modification system can be quantified through fluorescence.
(§1) Epigenetic reporter alleles were synthesized (OriGene, Rockville, Md.) using published sequences for component elements (Baird et al. (1999) Proc. Natl. Acad. Sci. 96:11241-6; Souslova et al. (2007) BMC Biotechnol. 7:37). Single nucleotide mutations were created using the QuickChange Lightening kit (Agilent Technologies Inc, Santa Clara, Calif.). For H4ac indicator, K5R, K8R, K12R, K16R and K20R (MUT indicator) were introduced. For H3K4me3 indicator, K4Q and D890A/W891A and M882A (three separate constructs) were introduced. For transient transfections, mouse embryonic fibroblasts (see below) were transfected with Fugene HD (Promega, Madison, Wis.), 48 hours prior to FACS. […] For drug stimulation, drug was added to the media 24 hours prior to FACS. For stable transfections in T293 (American Type Culture Collection) cells, 10 μg/ml of Blastocidin (Life Technologies, Carlsbad, Calif.) was added to the media for several weeks. For stable transfection in MEFs, the reporter was transferred to a ViraPower Lentiviral Expression System (Life Technologies, Carlsbad, Calif.). After selection with Blastocidin, the drug of interest was added 24 hours prior to FACS. SAHA, AR-42 and MS275 were purchased from Selleck (Selleck Chemicals, Houston, Tex.). […] FACS data were analyzed using FlowJo (Tree Star Inc, Ashland, Oreg.). A plasmid expressing HDAC3 was acquired from Addgene (Cambridge, Mass., plasmid 13819) and transfected into a stable cell line carrying the H4 acetyl reporter allele.

Assay [2] deals with acetylation machinery (acetylation of H4 at K5, K8, K12, K16). Nature of the assay: H4 acetylation (H4ac) reporter allele, GFP fluorescence by FACS. In kind it is cell-based. Particulars: for cells easily discriminated from auto fluorescence (% positive cells), H4ac reporter: FACS.
From the text: The acetyl reporter protein quantifies the activity of the acetylation machinery (acetylation of H4 specifically at the 5th, 8th, 12th and 16th Lysine's) and comprises an H4 tail on one end (the target for acetylation) and a TBP associated factor II (TAFII) bromodomain on the other end of the reporter protein (FIG. 5A). The TAFII bromodomain only recognizes and binds to the acetylated H4 tail, resulting in reconstitution of GFP structure and function (i.e. fluorescence). Therefore, the reporter protein has no fluorescence unless it is acetylated by the acetylation system of the nucleus of the cell.
as §1
Epigenetic reporter systems were created that monitor either H4 acetylation or H3K4 trimethylation machinery activity in an effort to determine whether there is an ongoing activity deficiency in cells from Kmt2d^+/βGeo mice (FIG. 18A). Both reporter alleles encode halves of green fluorescent protein separated by a flexible linker region (Baird et al. (1999) Proc. Natl. Acad. Sci. 96: 11241-6) with a histone tail and a histone reader at the N- and C-termini, respectively. When the histone tail corresponding to either H4 or H3 is modified by acetylation or methylation, respectively, GFP structure and function are reconstituted, as detected by a fluorescent readout (FIG. 18B). The acetyl reporter protein quantifies the activity of the acetylation machinery (acetylation of H4 specifically at sites K5, K8, K12, and K16) and comprises an H4 tail (residues 1-30) on one end and a TATA binding protein (TBP)-associated factor II (TAFII) bromodomain on the other end (FIG. 18A). The TAFII bromodomain only recognizes and binds to the acetylated H4 tail. […] For example, only 5% of cells were easily discriminated from auto fluorescence with 1 μM of SAHA, but increased to 20% with 2.5 μM of SAHA, 40% at 7.5 μM of SAHA and 45% at 10 μM of SAHA (FIG. 18D). Saturation of this response correlates well with immunoblot data using antibodies to the modified H4 tail (Munshi et al. (2006) Mol. Cancer Ther. 5:1967-74). This response is attenuated by co-transfection with a construct encoding a histone deacetylase (FIG. 20) and absent upon mutagenesis of all potential acetylation sites (FIG. 18E and FIG. 18I), attesting to its specificity. The H3K4 trimethylation reporter allele encodes the H3 tail (residues 1-40) on one end and the TBP-associated factor III (TAF3) plant homeodomain (PHD) on the other end, which binds to trimethylated K4 on H3 (FIG. 18A). […]

The values that follow come from patent US10246498B2, “Genetically encoded histone reporter allele constructs” (THE JOHNS HOPKINS UNIVERSITY, priority 2014, dated 2019).

“Also recorded” adds a separate entry of the source.

`Nc1ccccc1NC(=O)c1ccc(CNC(=O)OCc2cccnc2)cc1` [MS275]: the H3K4 trimethylation activity result in assay [1] was “enhanced; also recorded: improved”.
On to `O=C(CCCCCCC(=O)Nc1ccccc1)NO` [SAHA, suberoylanilide hydroxamic acid], for which the “cells easily discriminated from auto fluorescence (% positive cells), H4ac reporter” value in assay [2] (1 μM SAHA) amounted to 5%; in assay [2] (2.5 μM SAHA), 20%; in assay [2] (7.5 μM SAHA) it was 40%; in assay [2] (10 μM SAHA) it was 45%. Further, in assay [2] (FIG. 19A), the “acetylation of the indicator” value was “increases acetylation of the indicator”. The “signal of the H4ac indicator” value in assay [2] (HEK293 cells stably expressing the indicator, attenuated by recombinant HDAC3) is given as “increased signal”. In assay [2] (increasing amounts of drug, culture systems), the “fluorescence response of the acetylation indicator” value is “linear fluorescence response; also recorded: increasing fluorescence with increasing amounts”.
